Like-named read-outs stand apart in the source and are kept apart here.

Data set [1] deals with isolated rat aortic rings. The data set is described as follows: Endothelium-dependent relaxation of isolated aortic rings after incubation with drugs (Example 12).
For data set [2], the system named is isolated rat heart. The data set is described as follows: Coronary flow rate of isolated heart, ischaemia-reperfusion (Example 12).
The test system of data set [3] is thoracic aorta. The data set is described as follows: Endothelium-dependent relaxation of thoracic aorta after 6 weeks oral treatment (Example 13). It is filed as in vivo, Wistar rats. As to conditions: rats, 6 weeks treatment p.o., NS. The protocol: Sixty Wistar rats of both sexes weighing 230-280 g, 20-24 weeks of age, were obtained from the Faculty of Medicine, Ljubljana. […] A regular 12 h circadian cycle was maintained and between 5 and 7 animals were kept in each cage. The temperature of the experimental environment was 23-25° C. […] After 4-8 weeks of therapy the animals were sacrificed, blood samples were collected and heart and thoracic aorta were isolated. Each group was composed of the same number of male and female rats. […] After mounting, rings were allowed to equilibrate at 20 mN resting tension (found to be optimal in previous experiments) for 60 min. During this period, the tension was periodically adjusted to the desired level and the K-H solution was changed every 10 minutes. After the equilibration period, the rings were contracted three times with 60 mmol/L KCl to achieve stable contractions. […] In control animals the endothelium-dependent relaxation of the thoracic aorta was constant. However, in rats treated with drugs the percentage of endothelium-dependent relaxation was increased in comparison to the control group.

Data set [4] concerns heart. Description: Coronary flow rate after 6 weeks oral treatment (Example 13). The note with it: rats, 6 weeks treatment p.o., 40-minute ischemia, reperfusion, P < 0.001. It is filed as in vivo, Wistar rats. As for the experimental part:
Sixty Wistar rats of both sexes weighing 230-280 g, 20-24 weeks of age, were obtained from the Faculty of Medicine, Ljubljana. […] A regular 12 h circadian cycle was maintained and between 5 and 7 animals were kept in each cage. The temperature of the experimental environment was 23-25° C. […] After 4-8 weeks of therapy the animals were sacrificed, blood samples were collected and heart and thoracic aorta were isolated. Each group was composed of the same number of male and female rats.

For data set [5] the following is noted: in vivo; cited from earlier work.
Data set [6] deals with isolated rat heart. The data set is described as follows: LDH release rate, myocardial ischaemic-reperfusion injury of isolated heart (Example 12). As to conditions: losartan 1 μM; P < 0.01. For orientation: LDH in the medium is a marker of cell lysis.
Data set [7] relates to carotid artery. As to conditions: cited from earlier work.
In data set [8] the test system is arterial wall. The note with it: Ex 8 valsartan group, cited from earlier work.
The test system of data set [9] is common carotid artery. As to conditions: cited from earlier work.
For data set [10], the system named is brachial artery. The note with it: cited from earlier work; for FMD, improvement (increase): Ex 8 valsartan group, 30 days vs before.
Data set [11] concerns high sensitivity C-reactive protein (hsCRP). The note with it: Ex 9 valsartan group, 1 month treatment; calculated on data from co-pending patent application; cited from earlier work.
Setting [12] is: Ex 8, 1 month treatment period with Valsartan only.
Where [13] appears, read: Ex 8 valsartan group, 20 mg daily, 30 days vs before.
[14] abbreviates: Ex 8 valsartan group, 20 mg daily, 30 days.
Setting [15] is: Ex 8 valsartan group, 7 months of rest period.

On to `CC(C)c1c(C(=O)Nc2ccccc2)c(-c2ccccc2)c(-c2ccc(F)cc2)n1CC[C@@H](O)C[C@@H](O)CC(=O)O` [atorvastatin], for which the “Endothelium dependent relaxation compared to controls” value in data set [1] (atorvastatin 1 μM, P < 0.001) amounted to 21.1%. For the same compound, the “Increase in coronary flow compared to controls” value in data set [2] (atorvastatin 0.1 μM, P < 0.05) came to 52.9%; in data set [4] (daily dose 5 mg/kg), 86.9%. The “Increase of endothelium dependent relaxation compared to controls” value in data set [3] (daily dose 5 mg/kg) was 6.9%.

With `CC(C)n1c(/C=C/C(O)CC(O)CC(=O)O)c(-c2ccc(F)cc2)c2ccccc21` (stereo not drawn) [fluvastatin], in data set [5], the “half-life time (t1/2) in the blood plasma” value (from here on “half-life time”) is recorded as “about 2.5 hours”.

On to `CCCCc1nc(Cl)c(CO)n1Cc1ccc(-c2ccccc2-c2nn[nH]n2)cc1` [losartan], for which the “Endothelium dependent relaxation compared to controls” value in data set [1] (losartan 10 μM, P < 0.01) is on record as 17.0%. Also, the “Increase in coronary flow compared to controls” value in [2] (losartan 1 μM, P < 0.001) was 67.3%; in data set [4] (daily dose 2 mg/kg), 89.6%. Besides, in data set [5], the “half-life time” value is 1.5 to 2 h. For the same compound, the “Increase of endothelium dependent relaxation compared to controls” value in [3] (daily dose 2 mg/kg) is given as 7.3%. The “Decrease of the LDH release rates compared to controls” value in data set [6] is 58.6%.

For the compound `CCCCC(=O)N(Cc1ccc(-c2ccccc2-c2nnn[nH]2)cc1)[C@H](C(=O)O)C(C)C` [valsartan], the “half-life time” value in data set [5] was “about 6.0 hours”. Besides, the “β-stiffness of the carotid artery decreased by” value in [7] (setting [12]) is on record as 13.7%. Besides, in data set [7] (setting [13]), the “β-stiffness, improvement” value was −13.7%. Further, the “β-stiffness, after treatment” value in [7] (setting [14]) is listed as 6.40 U. In data set [7] (setting [15]), the “β-stiffness, residual improvement in % of effect achieved after 1 month of treatment” value is recorded as 9.2%. The “β-stiffness, before treatment” value in data set [7] (Ex 8 valsartan group, baseline) is given as 7.28 U. Further, in data set [8] (20 mg daily, 30 days vs before), the “Arterial age according to age normogram, improvement” value is −7.0 years. In addition, in data set [8] (20 mg daily, 30 days), the “Arterial age according to age normogram, after treatment” value is 38.0 years. For the same compound, in data set [8] (7 months of rest period), the “Arterial age according to age-related normogram” value is 43.5 years and the “Arterial age, difference to before treatment (in brackets)” value was −1.5 years. Moreover, the “Arterial age according to age normogram, before treatment” value in data set [8] (baseline) is 45.0 years. Further, in data set [9] (setting [12]), the “PWV decreased by” value was 7.2%. In addition, in [9] (setting [13]), the “PWV, improvement” value was −7.2%. The “PWV, after treatment” value in data set [9] (setting [14]) is listed as 5.41 m/s. Also, the “PWV, residual improvement in % of effect achieved after 1 month of treatment” value in [9] (setting [15]) is given as 9.9%. In addition, the “PWV, before treatment” value in data set [9] (Ex 8 valsartan group, baseline) is 5.80 m/s. Also, the “FMD, residual improvement in % of effect achieved after 1 month of treatment” value in data set [10] (Ex 8 valsartan group (20 mg daily, 30 days), 7 months of rest period) was 30.4%. In [10] (20 mg daily), the “FMD, improvement (increase)” value was “+156.0%”. Also, the “FMD, improvement (increase)” value in data set [10] (20 mg daily, listed as Valsartan) is 156.0%. In [10] (Ex 8 valsartan group: healthy men 43.0 y (n=20), 20 mg daily, 30 days, data from co-pending patent application), the “FMD, after treatment” value was 5.40%. In data set [10] (Ex 8 valsartan group: healthy men 43.0 y (n=20), baseline, data from co-pending patent application), the “FMD, before treatment” value is 2.11%. Moreover, in data set [11], the “Change in hs-CRP value after treatment” value is “+2.45%”.

These data come from patent US20130338203A1, “TREATMENT OF ARTERIAL AGEING BY COMBINATION OF RAAS INHIBITOR AND HMG-CoA REDUCTASE INHIBITOR” (FARMICOM PHARMACEUTICAL COMPANY D.O.O., priority 2011, published 2013).
